The subject of experiment [1] is partially pure bovine brain farnesyl-protein transferase. As to the kind of experiment: Tetrapeptides tested as farnesylation substrates ([3H]FPP, TLC, autoradiography). The class given is biochemical. As to conditions: peptide 200 µM, 0.5 µM [3H] FPP, 30 min. at 30°C. How it is done: When a peptide was used as the acceptor substrate, there were two changes to the assay: (1) Ras protein was excluded and, (2) the reactions were stopped by the additon of one tenth volume of 0.5 M EDTA. […] After drying under vacuum, the plates were sprayed with […] exposed to X-ray film at -70°C. […] These Rf values reflect TLC conditions using ethylacetate:pyridine: acetic acid:water (10:5:1:3) as the eluent. […] CAIS (Rf=0.84) and CAIM (Rf=0.83)). Quenched reaction mixtures containing peptide, farnesyldiphosphate and farnesyl-protein transferase were separated by TLC followed by visualization of the radioactive species by autoradiography. […] Control peptides having a […] substitution were not substrates. […] Autoradiographic exposure time was overnight (15-20 hr).

Experiment [2] deals with T1, Farnesyl-protein transferase from bovine brain (partially purified) (Bos taurus, UniProt P29702+P49355).
T1 construct: Cerebral lobes from bovine brains were homogenized in lysis buffer; from tissue; host or cells: bovine brain (cerebral lobes)
Kind of experiment: Inhibition of Ras farnesylation by tetrapeptides. The class given is biochemical. As to conditions: Ras-CVLS at 3.5 µM, 0.25 µM [³H]FPP; average of 2-5 determinations. How it is done: The quenched reactions were allowed to stand for 15 minutes (to complete the precipitation process).
Fractions (20 mL) were collected and those containing farnesyl-protein transferase activity were pooled.
Single capital letter amino acid abbreviations are used above.

Experiment [3] relates to bovine brain farnesyl-protein transferase. As to conditions: earlier findings (Schaber et al.); cited from earlier work.

Where a SMILES comes first, the peptide text is derived from it. [ ]: non-standard residue; d: D form.

For `CSCC[C@H](NC(=O)[C@@H](Cc1ccccc1)NC(=O)[C@@H](NC(=O)[C@@H](N)CS)C(C)C)C(=O)O` [CV(dF)M, Cys-Val-D-Phe-Met], in experiment [1], the Farnesylation substrate result is “- (- < 1% conversion)”.

By IC50 is commonly meant the concentration at which inhibition is half-maximal. Read a low IC50 as greater potency. In experiment [2], `CC(=O)N[C@H](CS)C(=O)N[C@H](C(=O)N[C@@H](CC(C)C)C(=O)N[C@@H](CO)C(=O)O)C(C)C` [N-Ac-(dC)VLS] (Ac-[dC]VLS-OH) registered an IC50 of 60 µM. For the same compound, in experiment [1], the Farnesylation substrate result is “+ (+ > 90% [^3H] farnesyl diphosphate converted to [^3H] farnesyl tetrapeptide)”.

For the compound `CC(C)C[C@H](NC(=O)[C@@H](NC(=O)[C@@H](N)CS)C(C)C)C(=O)N[C@H](CO)C(=O)O` [CVL(dS)], in experiment [2], the 50% inhibitory concentration (IC50) was 11 µM. For the same compound, the Farnesylation substrate result in experiment [1] is “+ (+ > 90% [^3H] farnesyl diphosphate converted to [^3H] farnesyl tetrapeptide)”.

For SSGCVLS [heptapeptide SSGCVLS], the substrate for isoprenylation entry in experiment [3] is reported as “served as a substrate for isoprenylation”.

For the compound `CC(C)C[C@@H](NC(=O)[C@@H](NC(=O)[C@@H](N)CS)C(C)C)C(=O)N[C@@H](CO)C(=O)O` [CV(dL)S, Cys-Val-D-Leu-Ser], half-maximal inhibition in experiment [2] (IC50) required 20 µM. The Farnesylation substrate result in experiment [1] is “- (- < 1% conversion)”.

For the compound `CC(C)C[C@H](NC(=O)[C@@H](NC(=O)[C@@H](N)CO)C(C)C)C(=O)N[C@@H](CO)C(=O)O` [SVLS] (H-SVLS-OH), in experiment [1], the Farnesylation substrate result is “- (- < 1% conversion)”.

In experiment [2], `CC(=O)N[C@@H](CS)C(=O)N[C@H](C(=O)N[C@@H](CC(C)C)C(=O)N[C@@H](CO)C(=O)O)C(C)C` [N-Ac-CVLS] (Ac-CVLS-OH) returned a half-maximal inhibitory concentration (IC50) of 2 µM. Besides, in experiment [1], the Farnesylation substrate entry was “+ (+ > 90% [^3H] farnesyl diphosphate converted to [^3H] farnesyl tetrapeptide)”.

These data come from patent publication EP0520823A2, “Non-substrate peptide inhibitors of farnesyl protein transferase” (MERCK & CO. INC., priority 1991, dated 1992).
